Data as given in ChEMBL document CHEMBL1136270 (Bioorg Med Chem Lett, 2003).

Columns and labels:
MAP kinase p38 = MAP kinase p38 (Mus musculus, UniProt P47811+O08911+Q9WUI1+Q9Z1B7); assay: Inhibitory activity against mouse Mitogen-activated protein kinase p38; format: protein assay
THP-1 [1] = assay: Anti human TNF-alpha activity determined through TNF-alpha release was measured in the supernatants by ELISA.; not active at a concentration of <10 uM; format: functional, cell-based
THP-1 [2] = assay: Anti human TNF-alpha activity determined through TNF-alpha release was measured in the supernatants by ELISA; not active at a concentration of <10 uM; format: functional, cell-based

| Structure (SMILES) | IC50 (MAP kinase p38) [nM] | IC50 (THP-1 [1]) | IC50 (THP-1 [2]) |
| --- | --- | --- | --- |
| O=C1NCc2nc(Sc3ccc(F)cc3F)c(N3CC4CCC3C4)cc2N1c1c(Cl)cccc1Cl (configuration not stated) | 5.3 |  |  |
| O=C1NCc2nc(Sc3ccc(F)cc3F)c(OC3CCNCC3)cc2N1c1c(Cl)cccc1Cl | 11 |  |  |
| O=C1NCc2nc(Sc3ccc(F)cc3F)c(N3CCN(CCN4CCCC4)CC3)cc2N1c1c(Cl)cccc1Cl | 1.1 |  |  |
| O=C1NCc2nc(Sc3ccc(F)cc3F)c(Br)cc2N1c1c(Cl)cccc1Cl | 16 | Not Active |  |
| O=C1NCc2nc(Sc3ccc(F)cc3F)c(N3CCNCC3)cc2N1c1c(Cl)cccc1Cl | 2 |  |  |
| CC(C)N1CCN(c2cc3c(nc2Sc2ccc(F)cc2F)CNC(=O)N3c2c(Cl)cccc2Cl)CC1 | 7 |  |  |
| CC1CN(c2cc3c(nc2Sc2ccc(F)cc2F)CNC(=O)N3c2c(Cl)cccc2Cl)CC(C)O1 (configuration not stated) | 3 |  |  |
| O=C1NCc2nc(Sc3ccc(F)cc3F)c(N3CCCCC3)cc2N1c1c(Cl)cccc1Cl | 4.2 |  |  |
| CN(C)CCN1CCN(c2cc3c(nc2Sc2ccc(F)cc2F)CNC(=O)N3c2c(Cl)cccc2Cl)CC1 | 0.6 |  |  |
| O=C1NCc2nc(Sc3ccc(F)cc3F)c(N3CC4CC3CN4CC3CC3)cc2N1c1c(Cl)cccc1Cl (configuration not stated) | 3 |  |  |
| O=C1NCc2nc(Sc3ccc(F)cc3F)c(N3CC4CC3CN4C3CC3)cc2N1c1c(Cl)cccc1Cl (configuration not stated) | 3 |  |  |
| O=C1NCc2nc(Sc3ccc(F)cc3F)c(N3CC4CC3CN4)cc2N1c1c(Cl)cccc1Cl (configuration not stated) | 0.6 |  |  |
| O=C1NCc2nc(Sc3ccc(F)cc3F)c(N3CCOCC3)cc2N1c1c(Cl)cccc1Cl | 2 |  |  |
| O=C1NCc2nc(Sc3ccc(F)cc3F)c(N3CCC(CCN4CCCC4)CC3)cc2N1c1c(Cl)cccc1Cl | 6 |  |  |
| CC(C)N1CC2CC1CN2c1cc2c(nc1Sc1ccc(F)cc1F)CNC(=O)N2c1c(Cl)cccc1Cl (configuration not stated) | 2 |  |  |
| CC(C)(C)OC(=O)N1CCN(c2cc3c(nc2Sc2ccc(F)cc2F)CNC(=O)N3c2c(Cl)cccc2Cl)CC1 | 25 |  | Not Active |
| CCN1CC2CC1CN2c1cc2c(nc1Sc1ccc(F)cc1F)CNC(=O)N2c1c(Cl)cccc1Cl (configuration not stated) | 9 |  |  |
| O=C1NCc2nc(Sc3ccc(F)cc3F)c(NC3CCNCC3)cc2N1c1c(Cl)cccc1Cl | 4 |  |  |
| CC(C)(C)OC(=O)N1CC2CC1CN2c1cc2c(nc1Sc1ccc(F)cc1F)CNC(=O)N2c1c(Cl)cccc1Cl (configuration not stated) | 44 |  | Not Active |
